# Patent US10940173B2, “Cannabis oil extracts and compositions” (priority 2015, dated 2021)
# Read-outs that look alike come from different tables or passages of the source.
# Experiments:
# Format in all cases: cell-based
# [1] = target: T1, CNR2 (also known as CB2) (Homo sapiens, UniProt P34972); experiment: β-arrestin GPCR assay (PathHunter), CNR2; design: β-galactosidase enzyme fragment (complementation partner); details: β-arrestin recruitment
# [2] = target: T2, CNR1 (also known as CB1) (Homo sapiens, UniProt P21554); details: read-out: CNR1 cAMP EC50
# T2 sequence (P21554 whole entry): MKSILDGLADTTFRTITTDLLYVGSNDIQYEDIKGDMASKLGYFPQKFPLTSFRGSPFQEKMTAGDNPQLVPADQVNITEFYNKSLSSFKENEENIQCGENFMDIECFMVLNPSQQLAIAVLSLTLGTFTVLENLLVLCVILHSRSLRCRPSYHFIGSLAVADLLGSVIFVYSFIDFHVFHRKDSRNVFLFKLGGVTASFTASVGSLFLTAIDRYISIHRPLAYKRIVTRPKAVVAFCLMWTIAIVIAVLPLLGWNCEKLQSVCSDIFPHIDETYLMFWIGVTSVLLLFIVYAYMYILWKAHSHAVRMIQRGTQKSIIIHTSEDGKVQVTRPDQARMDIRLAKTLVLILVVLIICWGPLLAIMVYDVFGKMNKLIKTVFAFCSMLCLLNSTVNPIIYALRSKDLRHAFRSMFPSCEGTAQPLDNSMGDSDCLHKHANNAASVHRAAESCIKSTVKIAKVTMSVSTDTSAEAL
# [3] = target: T1, CNR2 (also known as CB2); experiment: cAMP competitive inhibition immunoassay (HitHunter), CNR2; details: cAMP assay
# [4] = target: T2, CNR1 (also known as CB1); design: β-galactosidase enzyme fragment (complementation partner); details: read-out: CNR1 β-Arrestin EC50
# T1 sequence (P34972 whole entry, the tested form may be a part): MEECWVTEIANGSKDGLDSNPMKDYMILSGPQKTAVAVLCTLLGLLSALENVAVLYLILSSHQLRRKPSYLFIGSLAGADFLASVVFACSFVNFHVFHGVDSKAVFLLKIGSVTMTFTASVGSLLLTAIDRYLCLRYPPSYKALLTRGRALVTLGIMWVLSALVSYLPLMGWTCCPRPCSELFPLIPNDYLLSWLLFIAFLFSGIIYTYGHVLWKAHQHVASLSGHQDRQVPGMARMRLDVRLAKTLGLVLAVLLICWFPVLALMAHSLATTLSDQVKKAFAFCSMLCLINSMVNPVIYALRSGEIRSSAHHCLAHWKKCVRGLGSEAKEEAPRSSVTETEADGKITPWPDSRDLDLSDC
structure (smiles),measurement,setting,value
CCCCCc1cc(O)c2c(c1)OC(C)(C)[C@@H]1CCC(CO)=C[C@@H]21 [Example 11-OH-THC],EC50,[1],> 16700 nM
same,EC50,[2],10.8 nM
same,EC50,[3],571 nM
same,EC50,[4],> 16700 nM
